# Patent US9724408B2, “Compositions and methods for activating stimulator of interferon gene-dependent signalling” (ADURO BIOTECH, INC., priority 2013, dated 2017)
# What was measured:
# [1] = tested on: THP1-Blue™ ISG cells; experiment: Type I interferon induction in THP1-Blue ISG reporter cells (QUANTI-Blue, A655); format: cell-based, human; details: 100 μM for 30 minutes, supernatants after overnight incubation, FIG. 7
# Procedure: To determine the relative level of type I interferon induced in human cells by each of the native and derivative molecules as a signature of adjuvant potency, 4×10^5 THP1-Blue™ ISG cells (a human monocyte cell line transfected with an IRF-inducible secreted embryonic alkaline phosphatase reporter gene (Invivogen) which express alkaline phosphatase under the control of a promoter comprised of five IFN-stimulated response elements) were incubated with 100 μM of cyclic [G(3′,5′)pG(3′,5′)p] (CDG), cyclic [G(2′,5′)pG(3′,5′)p] (mixed linkage, or ML-CDG), or HBSS for 30 minutes at 37° C. with 5% CO2. After 30 minutes, cells were washed and plated in 96-well dish in RPMI media containing 10% FBS, and incubated at 37° C. with 5% CO2. Cell culture supernatants from each sample were collected after overnight incubation, and 20 μL of the cell culture supernatants was added to 180 μL QUANTI-Blue reagent (Invivogen) and incubated for 45 minutes to evaluate type I interferon protein levels. Readings at Absorbance 655 nm were taken every 3 minutes using a Versa Max kinetic spectrophotometer (Molecular Diagnostics).
# […]. After 30 minutes, cells were washed and plated in 96-well dish in RPMI media containing 10% FBS, and incubated at 37° C. with 5% CO2. Cell culture supernatants from each sample were collected after overnight incubation, and 20 μL of the cell culture supernatants was added to 180 μL QUANTI-Blue reagent (Invivogen) and incubated for 45 minutes. Readings at Absorbance 655 nm were taken at 15 minutes using a SpectraMax spectrophotometer (Molecular Diagnostics).
# The induction of type I interferon in human cells was measured to evaluate the potency of untreated and phosphodiesterase-treated oxo, Rp monothio and Rp, Rp dithio derivatives. […]. After 30 minutes, cells were washed and plated in a 96-well dish in RPMI media containing 10% FBS, and incubated at 37° C. with 5% CO2. Cell culture supernatants from each sample were collected after 16 hr incubation, and 20 μL of the cell culture supernatants was added to 180 μL QUANTI-Blue reagent (Invivogen) and incubated for 25 minutes to evaluate type I interferon protein levels. Readings at Absorbance 655 nm were measured with a Versa Max spectrophotometer (Molecular Diagnostics).
# [2] = tested on: primary human PBMCs; experiment: Interferon gene expression in primary human PBMCs (real-time quantitative RT-PCR); format: cell-based; details: 5 μM, Effectene transfection, 6 hrs, four donors, FIG. 8
# Procedure: (§1) To determine the levels of IFN-α, -β and -γ induced by cyclic [G(2′,5′)pG(3′,5′)p] (ML-CDG) compared to cyclic [G(3′,5′)pG(3′,5′)p] as a signature of potency to activate innate immunity, 1×10^6 primary human PBMCs isolated from four independent human donors were incubated in a 96 well U bottom plate for 30 min at 37° C., 5% CO2 with 5 or 0.5 μM of cyclic [G(3′,5′)pG(3′,5′)p] (CDG) or cyclic [G(2′,5′)pG(3′,5′)p] (ML-CDG), 1 μg/mL of Interferon Stimulatory DNA (ISD), or 4 μg/mL of Poly (I:C) utilizing Effectene transfection reagent (Qiagen) to transfer the molecules into the PBMC. ISD (Interferon Stimulating DNA) is TLR independent (Stetston, D. B. et. al. Immunity 24, 93-103, January 2006) and signals through cGAS, and is thus STING-dependent, while Poly (I:C) can signal through both TLR3 and RIG-I pathways, and are thus STING-independent. After 30 minutes, the cells were washed and replaced with RPMI media containing 10% FBS and incubated at 37° C., 5% CO2. After 6 hrs incubation, a portion of the cells were harvested and assessed by real-time quantitative RT-PCR for gene expression of the type I cytokines interferon alpha 2 (IFNA2) and interferon beta 1 (IFNB1), and the type II cytokine gene interferon gamma (IFNG). Gene expression was determined by real-time quantitative RT-PCR using the PrimePCR RNA purification and cDNA analysis system, and run on the CFX96 gene cycler (all BioRad). Normalized expression was determined for each, which accounts for the different efficiencies of PCR amplification for the target (Etarget) and the reference (Ereference), and transforms the logarithmic scaled raw data unit Cycle Threshold (CT) into the linear unit of Normalized Expression. […] To assess correlative secreted protein levels of these cytokines, supernatants were harvested from the remaining cells after 24 hours incubation and IFN-α and -γ levels were determined by Cytometric Bead Array (CBA, BD Biosciences), while IFN-β levels were determined by ELISA (PBL).
# [3] = tested on: primary human PBMCs; experiment: Secreted interferon protein in primary human PBMCs (CBA, ELISA); format: cell-based; details: 24 hours, four donors
# Procedure: as §1
# [4] = tested on: OVA257-264 peptide; experiment: OVA-specific CD8 T cell response in goldenticket (STING−/−) mice (IFNγ ELISpot); format: in vivo; details: 25 μg in 2% squalene-and-water with 10 μg ovalbumin, subcutaneous, day 7, FIG. 17
# Procedure: (§2) To determine whether STING signaling is required for c[G(2′,5′)pG(3′,5′)p] (ML-CDG) to induce an OVA-specific CD8 T cell response, C57BL/6 mice (n=3 or 5) and goldenticket mice (n=3) were immunized subcutaneously with either 0 μg (no CDN) or 25 μg c[G(2′,5′)pG(3′,5′)p] (ML-CDG) formulated in 2% squalene-and-water with 10 μg ovalbumin protein. Seven days following the vaccination, blood was collected from each animal, and PBMCs were prepared. 5×10^4 PBMCs were stimulated overnight in an IFNγ ELISpot assay with media alone (unstimulated) or with 1 μM OVA257-264 peptide in the presence of 1×10^5 naïve splenocytes as feeder cells. IFNγ ELISpots were developed and quantified using a CTL plate reader and ImmunoSpot software.
# [5] = tested on: OVA257-264 peptide; experiment: OVA-specific CD8 T cell response after CDN-adjuvanted OVA vaccination (IFNγ ELISpot); format: in vivo, C57BL/6 mice; details: subcutaneous
# Procedure: To determine the OVA-specific CD8 T cell response induced by the different cyclic dinucleotide molecules, C57BL/6 mice (n=5) were immunized subcutaneously with 0 μg (no CDN) or 5 μg or 25 μg [G(2′,5′)pG(3′,5′)p] (mixed linkage or ML-CDG) formulated in 2% squalene-and-water with 10 μg ovalbumin protein. Seven days following the vaccination, blood was collected from each animal, and PBMCs were prepared. 5×10^4 PBMCs were stimulated overnight in an IFNγ ELISpot assay with media alone (unstimulated) or with 1 μM OVA257-264 peptide in the presence of 1×10^5 naïve splenocytes as feeder cells. IFNγ ELISpots were developed and quantified using a CTL plate reader and ImmunoSpot software.
# as §2, with “5×10^4 PBMCs were stimulated overnight in an IFNγ ELISpot assay with media alone (unstimulated) or with 1 μM OVA257-264 peptide in the presence of 1×10^5 naïve splenocytes as feeder cells.” left out
smiles,measurement,setting,value
"Nc1nc2c(ncn2C2OC3COP(=O)(O)OC4C(O)C(COP(=O)(O)OC3C2O)OC4n2cnc3c(=O)[nH]c(N)nc32)c(=O)[nH]1 (stereo not shown) [ML-CDG, cyclic-[G(2′,5′)pG(3′,5′)p]]",levels of IFN-β (type I interferon protein levels),[1],"significantly higher levels of IFN-β than cyclic [G(3′,5′)pG(3′,5′)p]"
same,gene expression for interferon gamma (IFNG),[2],significantly higher level
same,gene expression of interferon alpha 2 (IFNA2),[2],significantly higher
same,gene expression of interferon beta 1 (IFNB1),[2],significantly higher
same,secretion of IFN-γ,"[3]; 5 μM and 0.5 μM, CBA, FIG. 9(c)","higher levels of IFN-γ than cyclic [G(3′,5′)pG(3′,5′)p] at the same doses, and higher levels than the ISD and Poly I:C controls"
same,levels of secreted IFN-α,"[3]; 5 μM, CBA, FIG. 9(a)","higher than cyclic [G(3′,5′)pG(3′,5′)p] at the same or lower dose"
same,levels of IFN-β,"[3]; 5 μM, ELISA, FIG. 9(b)","higher than with cyclic [G(3′,5′)pG(3′,5′)p] induced levels, as well as for the ISD and Poly I:C controls"
same,"OVA-specific CD8 T cell response, goldenticket mice",[4],not significantly different than the OVA-specific responses induced by a control formulation that does not include CDN
same,OVA-specific CD8 immune responses,"[5]; 5 μg or 25 μg in 2% squalene-and-water with 10 μg ovalbumin, day 7, FIG. 16",significantly higher than responses induced by unstimulated controls and by a no CDN control group
same,"OVA-specific CD8 T cell response, wild-type mice","[5]; 25 μg in 2% squalene-and-water with 10 μg ovalbumin, day 7, FIG. 17",induces significant OVA257-264 immune responses compared to unstimulated control and a no CDN control
